The values below come from ChEMBL document CHEMBL3286313 (J Med Chem, 2014).

Each structure is given as a SMILES string. Several values for one entry are separate records, joined by “and”; a condition that tells them apart may be missing. Equal values may be shown once. Activity calls are given as the source filed them. The calls are words filed in the database; no cut-off is given here.

Experiment [1] concerns the target T1, D(2) dopamine receptor (Homo sapiens, UniProt P14416). Description: biochemical. The format is cell-based, CHO.
The target in experiment [2] is T1, D(2) dopamine receptor. Description: biochemical. Format: cell-based, CHO. This is another data set of the same source.
Experiment [3] deals with T2, D(3) dopamine receptor (Homo sapiens, UniProt P35462). The experiment can be described thus: biochemical. Format: cell-based, CHO.
T2 sequence (P35462 whole entry): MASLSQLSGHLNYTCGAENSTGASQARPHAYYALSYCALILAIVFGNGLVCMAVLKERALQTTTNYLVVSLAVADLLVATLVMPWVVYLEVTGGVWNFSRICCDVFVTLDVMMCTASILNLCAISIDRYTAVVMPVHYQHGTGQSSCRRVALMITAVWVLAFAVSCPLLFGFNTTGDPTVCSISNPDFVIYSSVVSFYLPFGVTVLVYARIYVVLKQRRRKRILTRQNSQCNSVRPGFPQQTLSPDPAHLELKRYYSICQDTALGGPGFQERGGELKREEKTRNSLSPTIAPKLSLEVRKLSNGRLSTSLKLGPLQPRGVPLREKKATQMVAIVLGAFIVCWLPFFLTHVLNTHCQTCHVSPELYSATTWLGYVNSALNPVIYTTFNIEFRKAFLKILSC
Experiment [4] addresses T3, D(4) dopamine receptor (Homo sapiens, UniProt P21917).
T3 sequence (P21917 whole entry): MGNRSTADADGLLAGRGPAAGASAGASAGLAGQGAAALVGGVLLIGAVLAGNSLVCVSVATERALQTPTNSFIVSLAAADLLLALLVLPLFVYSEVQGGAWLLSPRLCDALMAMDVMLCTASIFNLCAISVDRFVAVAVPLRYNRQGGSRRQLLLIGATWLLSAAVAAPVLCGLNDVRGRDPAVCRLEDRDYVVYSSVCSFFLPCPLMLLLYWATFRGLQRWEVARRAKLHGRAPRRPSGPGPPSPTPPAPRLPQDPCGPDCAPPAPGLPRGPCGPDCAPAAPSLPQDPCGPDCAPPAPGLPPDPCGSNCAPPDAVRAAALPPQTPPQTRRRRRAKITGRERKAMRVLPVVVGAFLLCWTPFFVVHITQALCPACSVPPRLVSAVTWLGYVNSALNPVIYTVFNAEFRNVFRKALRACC
Description: biochemical. The format is cell-based, CHO.

Experiment [5] deals with 5-hydroxytryptamine receptor 2A (Homo sapiens, UniProt P28223). Description: biochemical. Format: cell-based, HEK293.
5-hydroxytryptamine receptor 2A, sequence (P28223 whole entry): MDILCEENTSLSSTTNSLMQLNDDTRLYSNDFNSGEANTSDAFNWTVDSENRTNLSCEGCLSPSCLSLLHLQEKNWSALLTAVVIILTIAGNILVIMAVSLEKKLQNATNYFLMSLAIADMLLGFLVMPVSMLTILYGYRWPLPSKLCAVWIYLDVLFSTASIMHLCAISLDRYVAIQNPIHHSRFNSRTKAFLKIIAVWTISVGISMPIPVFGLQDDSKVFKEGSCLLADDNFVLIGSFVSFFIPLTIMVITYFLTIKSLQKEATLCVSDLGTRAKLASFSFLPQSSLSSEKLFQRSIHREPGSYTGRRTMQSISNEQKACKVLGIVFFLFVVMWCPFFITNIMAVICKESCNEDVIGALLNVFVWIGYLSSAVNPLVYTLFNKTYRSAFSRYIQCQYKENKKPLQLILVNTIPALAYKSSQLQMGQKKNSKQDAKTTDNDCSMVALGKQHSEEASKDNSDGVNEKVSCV
In experiment [6] the target is T2, D(3) dopamine receptor. Format: functional, cell-based, HEK293.
Experiment [7] addresses D(1A) dopamine receptor (Homo sapiens, UniProt P21728). The experiment can be described thus: biochemical. The format is cell-based, HEK293.
The target of experiment [8] is T1, D(2) dopamine receptor.
In experiment [9] the test system is Mus musculus. Description: CNS activity in C57Bl/6J mouse assessed as auditory startle response at 3 mg/kg, ip measured after 15 mins. Format: functional, organism-based. More on the design: dose 3 mg/kg.
The target of experiment [10] is T1, D(2) dopamine receptor. This is another data set of the same source.

D(1A) dopamine receptor, sequence (P21728 whole entry): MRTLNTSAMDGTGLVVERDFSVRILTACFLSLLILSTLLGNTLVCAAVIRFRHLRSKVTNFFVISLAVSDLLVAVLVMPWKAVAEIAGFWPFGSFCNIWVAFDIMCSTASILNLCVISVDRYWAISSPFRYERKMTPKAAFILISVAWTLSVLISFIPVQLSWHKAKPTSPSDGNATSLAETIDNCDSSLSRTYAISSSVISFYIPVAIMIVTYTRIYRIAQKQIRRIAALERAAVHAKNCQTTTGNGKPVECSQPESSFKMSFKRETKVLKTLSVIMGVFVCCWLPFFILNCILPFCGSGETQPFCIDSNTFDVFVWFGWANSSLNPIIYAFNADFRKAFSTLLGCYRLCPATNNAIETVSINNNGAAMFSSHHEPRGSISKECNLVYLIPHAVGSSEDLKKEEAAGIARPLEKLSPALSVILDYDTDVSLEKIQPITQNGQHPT
T1 sequence (P14416 whole entry): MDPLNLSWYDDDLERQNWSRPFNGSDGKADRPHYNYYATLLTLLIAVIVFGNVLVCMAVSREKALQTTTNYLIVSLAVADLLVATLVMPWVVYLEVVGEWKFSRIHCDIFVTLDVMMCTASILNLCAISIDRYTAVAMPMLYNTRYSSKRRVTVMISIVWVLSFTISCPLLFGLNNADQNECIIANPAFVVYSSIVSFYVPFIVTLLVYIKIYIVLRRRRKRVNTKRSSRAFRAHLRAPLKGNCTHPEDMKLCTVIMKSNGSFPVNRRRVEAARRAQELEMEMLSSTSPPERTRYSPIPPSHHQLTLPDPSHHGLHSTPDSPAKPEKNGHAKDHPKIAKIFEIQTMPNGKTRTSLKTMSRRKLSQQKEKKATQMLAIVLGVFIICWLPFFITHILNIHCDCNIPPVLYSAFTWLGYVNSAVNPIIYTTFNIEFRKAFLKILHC

As for `Clc1cccc(N2CCN(CCCCOc3cccc4ccnn34)CC2)c1Cl`, the Ki in experiment [1] turned out to be 64 nM; in experiment [2] it was 16 nM; in experiment [3], 7.2 nM; in experiment [4], 16 nM.

As for `N#Cc1cnn2ccc(OCCCCN3CCN(c4cccc(Cl)c4Cl)CC3)cc12`, the Ki in experiment [5] was found to be 490 nM; in [7], 930 nM; in experiment [1], 0.58 nM; in experiment [2], 0.32 nM; in experiment [3], 1.5 nM; in experiment [4] it was 5.7 nM. Also, the results for the EC50 in [6] and in experiment [8] were 12 nM and 110 nM, respectively.

Regarding `OCc1cc2cc(OCCCCN3CCN(c4cccc(Cl)c4Cl)CC3)ccn2n1`, the Ki in [5] stood at 16 nM; in [7] it was 240 nM; in [1], 3.1 nM; in experiment [2], 2.3 nM; in experiment [3], 1.3 nM; in experiment [4], 35 nM. Besides, the EC50 was 5.9 nM in experiment [6] and 540 nM in experiment [8].

With `O=Cc1cnn2ccc(OCCCCN3CCN(c4cccc(Cl)c4Cl)CC3)cc12`, the Ki in [5] is 240 nM; in experiment [7], 970 nM; in experiment [1], 4.6 nM; in experiment [2] it was 3.2 nM; in experiment [3], 6.9 nM; in [4] it was 57 nM. Further, the EC50 in experiment [6] came out at 1.9 nM; in [8], 650 nM. Further, the result in experiment [9] was Active. Also, inhibition in [10] was half-maximal at 360 nM (IC50).

Take `CCOC(=O)c1cc2cc(OCCCCN3CCN(c4cccc(Cl)c4Cl)CC3)ccn2n1`: the Ki in [5] came to 22 nM; in experiment [7], 150 nM; in experiment [1], 7.4 nM; in [2], 6.7 nM; in experiment [3] it was 2.1 nM; in [4] it was 47 nM. Moreover, the EC50 was 57 nM in [6] and 440 nM in [8].

Consider `Clc1cccc(N2CCN(CCCCOc3ccc4ccnn4c3)CC2)c1Cl`, for which the EC50 came out at 41 nM in experiment [6] and 1300 nM in experiment [8]. Moreover, the Ki in experiment [1] was 4.2 nM; in experiment [2], 2.1 nM; in experiment [3], 2.3 nM; in experiment [4] it was 4.4 nM.

On to `O/N=C/c1cnn2ccc(OCCCCN3CCN(c4cccc(Cl)c4Cl)CC3)cc12` (stereo in doubt; 8a), for which the Ki in experiment [5] was 7.7 nM; in [7], 4300 nM; in [1], 1.8 nM; in [2], 1.7 nM; in experiment [3], 2.3 nM; in experiment [4], 5.3 nM. The results for the EC50 in experiment [6] and in [8] were 42 nM and 270 nM, respectively.

In the case of `N#Cc1cc2cc(OCCCCN3CCN(c4cccc(Cl)c4Cl)CC3)ccn2n1`, the Ki came to 81 nM in experiment [5]; 3500 nM in experiment [7]; 8.9 nM in [1]; 6.7 nM in [2]; 1.9 nM in experiment [3]; 9.3 nM in experiment [4]. In addition, the results for the concentration giving a half-maximal response (EC50) in experiment [6] and in [8] were 41 nM and 98 nM, respectively.

`Clc1cccc(N2CCN(CCCCOc3cccn4nccc34)CC2)c1Cl`: the Ki in experiment [1] turned out to be 25 nM; in experiment [2], 30 nM; in experiment [3] it was 10 nM; in experiment [4], 16 nM.

In the case of `O=Cc1cnn2c(OCCCCN3CCN(c4cccc(Cl)c4Cl)CC3)cccc12`, the Ki came out at 51 nM in [1], 15 nM in [2], 6.4 nM in [3] and 78 nM in experiment [4].

On to `O=Cc1cc2cc(OCCCCN3CCN(c4cccc(Cl)c4Cl)CC3)ccn2n1`, for which the Ki came out at 56 nM in experiment [5]; 180 nM in experiment [7]; 14 nM in experiment [1]; 14 nM in experiment [2]; 6 nM in experiment [3]; 89 nM in experiment [4]. For the same compound, in experiment [6], the EC50 worked out at 5 nM. In addition, in experiment [10], the IC50 is 28.8 nM and 22 nM.

For `Clc1cccc(N2CCN(CCCCOc3ccn4nccc4c3)CC2)c1Cl`, the figures for the EC50 in experiment [6] and in [8] were 66 nM and 180 nM, respectively. For the same compound, the Ki in [1] was determined as 34 nM; in [2], 39 nM; in experiment [3], 7 nM; in experiment [4], 130 nM.

For the compound `O=Cc1cnn2cc(OCCCCN3CCN(c4cccc(Cl)c4Cl)CC3)ccc12`, the EC50 in [6] came out at 110 nM; in [8], 340 nM. In addition, the Ki in experiment [1] was determined as 6.2 nM; in experiment [2], 8.1 nM; in experiment [3], 2 nM; in experiment [4], 18 nM.

`O=Cc1c(OCCCCN2CCN(c3cccc(Cl)c3Cl)CC2)nn2ccccc12`: the Ki in [1] is 10 nM; in experiment [2], 14 nM; in experiment [3], 5.9 nM; in experiment [4], 29 nM.

Take `O/N=C/c1cc2cc(OCCCCN3CCN(c4cccc(Cl)c4Cl)CC3)ccn2n1`: the Ki in experiment [5] came out at 7.9 nM; in experiment [7], 260 nM; in experiment [1], 3.3 nM; in [2], 2.3 nM; in experiment [3] it was 0.86 nM; in [4], 24 nM. Moreover, the EC50 in [6] worked out at 15 nM.

On to `O=Cc1cnn2cccc(OCCCCN3CCN(c4cccc(Cl)c4Cl)CC3)c12`, for which the Ki stood at 29 nM in [1], 24 nM in experiment [2], 20 nM in [3] and 41 nM in experiment [4].

On to `O/N=C/c1cnn2ccc(OCCCCN3CCN(c4cccc(Cl)c4Cl)CC3)cc12` (stereo in doubt; 8b), for which the Ki in [5] is 4 nM; in [7], 670 nM; in [1], 0.17 nM; in [2], 0.25 nM; in experiment [3], 0.69 nM; in experiment [4], 6 nM. The EC50 in experiment [6] came to 39 nM; in [8], 240 nM. Half-maximal inhibition in experiment [10] (IC50) was put at 3.8 nM.

In general, Ki refers to the dissociation constant of the complex between target and ligand, obtained from inhibition or displacement. Read a high Ki as weaker binding. One may read the EC50 as the concentration needed to bring the measured effect to its halfway point. High values mean lower potency in that assay, low ones higher potency in that assay. For orientation: IC50 means the midpoint of a concentration-inhibition curve. A higher IC50 goes with weaker potency in that assay.
